Measured values taken from patent US8481738B2, “Gonadotropin-releasing hormone receptor antagonists and methods relating thereto” (Neurocrine Biosciences, Inc., priority 2007, dated 2013).

The compounds below were run against T1, human GnRH receptor (Homo sapiens, UniProt P30968) (assay: Peptide competition radioligand binding displacement assay, human GnRH receptor membranes). Settings: one or more of the peptide competition human receptor binding assays.
T1 construct: expressed in transfected cells; host or cells: RBL cells, stably transfected (in general)
T1 sequence (P30968 1-328): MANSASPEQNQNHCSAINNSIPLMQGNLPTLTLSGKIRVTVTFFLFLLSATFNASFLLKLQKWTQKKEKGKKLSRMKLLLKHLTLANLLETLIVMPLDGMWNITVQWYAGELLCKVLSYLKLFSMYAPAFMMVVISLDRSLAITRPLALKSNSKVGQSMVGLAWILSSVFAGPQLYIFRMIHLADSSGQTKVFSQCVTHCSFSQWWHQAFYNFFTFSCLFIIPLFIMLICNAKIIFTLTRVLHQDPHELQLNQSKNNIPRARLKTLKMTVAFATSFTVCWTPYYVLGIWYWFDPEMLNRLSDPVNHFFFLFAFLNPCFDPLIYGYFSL
Procedure, shortened: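 Membranes for radioligand binding were prepared from RBL cells stably expressing human GnRH receptor, which were lysed by nitrogen cavitation at 900 psi, 4° C. Membranes from HEK293 cells stably transfected with human receptor were held in 10 mM HEPES pH 7.5, 150 mM NaCl, 0.1% BSA. Transiently transfected COS-7 cells were used for other species.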

SMILES	Ki [µM]
Cc1cc(Cl)c(-c2cc(C(=O)N(C)c3c(C)cccc3C)ccc2Cl)cn1 [2-19]	≤ 0.1
CSc1ccccc1N(C)C(=O)c1ccc(Cl)c(-c2cnc(C(F)(F)F)cc2C#N)c1 [2-81]	≤ 0.1
COc1ccccc1N(C)C(=O)c1ccc(Cl)c(-c2ncc(F)cc2F)c1 [2-59]	≤ 0.1
COc1ccccc1N(C)C(=O)c1ccc(Cl)c(-c2cnc(C)cc2Cl)c1 [2-8]	≤ 0.1
CN(C(=O)c1ccc(Cl)c(-c2cnc(C(F)(F)F)cc2C#N)c1)c1ccccc1OCCCC(=O)O [4-10]	≤ 0.1
Cc1cccc(OCCCC(=O)O)c1N(C)C(=O)c1ccc(Cl)c(-c2nc3ccccc3cc2C#N)c1 [5-4]	≤ 0.1
COc1ccccc1N(C)C(=O)c1ccc(Cl)c(-c2ccc(Cl)cc2C#N)c1 [2-55]	≤ 0.1
COC(=O)COc1ccccc1N(C)C(=O)c1ccc(Cl)c(-c2cnc(C)cc2Cl)c1 [3-4]	≤ 0.1
COc1cccc(C)c1N(C)C(=O)c1ccc(Cl)c(-c2cnc(C(F)(F)F)cc2C#N)c1 [2-35]	≤ 0.1
CN(C(=O)c1ccc(Cl)c(-c2ncc(C(F)(F)F)cc2Cl)c1)c1ccccc1F [2-76]	≤ 0.1
Cc1cc(Cl)c(-c2cc(C(=O)N(C)c3ccccc3C)ccc2Cl)cn1 [2-16]	≤ 0.1
COc1cc(C)c(-c2cc(C(=O)N(C)c3cccc(Cl)c3OC)ccc2Cl)cn1 [2-45]	≤ 0.1
COC(=O)c1ccccc1N(C)C(=O)c1ccc(Cl)c(-c2ncc(C)cc2Cl)c1 [2-77]	≤ 0.1
COc1ccccc1N(C)C(=O)c1ccc(Cl)c(-c2cnc(C(F)(F)F)cc2C#N)c1 [2-14]	≤ 0.1
Cc1cc(Cl)cnc1-c1cc(C(=O)N(C)c2cccc(C)c2C)ccc1Cl [2-71]	≤ 0.1
Cc1cc(C#N)ncc1-c1cc(C(=O)N(C)c2c(C)cccc2OCCCC(=O)O)ccc1Cl [4-8]	≤ 0.1
Cc1cc(Cl)c(-c2cc(C(=O)N(C)c3ccccc3F)ccc2Cl)cn1 [2-37]	≤ 0.1
COc1ccccc1N(C)C(=O)c1ccc(Cl)c(-c2nc3ccccc3cc2C)c1 [2-79]	≤ 0.1
COC(=O)CCCOc1ccccc1N(C)C(=O)c1ccc(Cl)c(-c2cnc(C(F)(F)F)cc2C#N)c1 [3-10]	≤ 0.1
COc1ccccc1N(C)C(=O)c1ccc(Cl)c(-c2ccc(Cl)nc2Cl)c1 [2-6]	≤ 0.1
COC(=O)CCCOc1ccccc1N(C)C(=O)c1ccc(Cl)c(-c2cnc(Cl)cc2C)c1 [3-2]	≤ 0.1

The next lines start with the values.

Ki [µM]	SMILES
≤ 0.1	CN(C(=O)c1ccc(Cl)c(-c2cnc(C(F)(F)F)cc2C#N)c1)c1ccccc1OCCCc1nnn[nH]1 [28-1, 4-Chloro-3-(4-cyano-6-trifluoromethyl-pyridin-3-yl)-N-methyl-N-{2-[3-(1H-tetrazol-5-yl)-propoxy]-phenyl}-benzamide]
≤ 0.1	COc1cccc(C)c1N(C)C(=O)c1cc(-c2cnc(C(F)(F)F)cc2C#N)c(Cl)cc1OCCCO [21-8]
≤ 0.1	COc1ccccc1N(C)C(=O)c1cc(-c2cnc(C(F)(F)F)cc2C#N)c(Cl)cc1CC(=O)O [44-1, {5-Chloro-4-(4-cyano-6-trifluoromethyl-pyridin-3-yl)-2-[(2-methoxy-phenyl)-methyl-carbamoyl]-phenyl}-acetic acid]
≤ 0.1	Cc1cc(C#N)ncc1-c1cc(C(=O)N(C)c2c(C)cccc2C)c(OCCCCO)cc1Cl [21-5]
≤ 0.1	CCOC(=O)CCCOc1cc(Cl)c(-c2cnc(C(F)(F)F)cc2C#N)cc1C(=O)N(C)c1ccccc1OC [43-1, 4-{5-Chloro-4-(4-cyano-6-trifluoromethyl-pyridin-3-yl)-2-[(2-methoxy-phenyl)-methyl-carbamoyl]-phenoxy}-butyric acid ethyl ester]
≤ 0.1	COc1cccc(C)c1N(C)C(=O)c1cc(-c2cnc(C(F)(F)F)cc2C#N)c(Cl)cc1OCCC(=O)O [22-10]
≤ 0.1	CN(C(=O)c1cc(-c2cnc(C(F)(F)F)cc2C#N)c(Cl)cc1OCCCC(=O)O)c1ccccc1-c1cnco1 [34-15]
≤ 0.1	COc1cccc(C)c1N(C)C(=O)c1cc(-c2nc3ccccc3cc2C#N)c(Cl)cc1OCCCC(=O)O [22-3]
≤ 0.1	COc1ccccc1N(C)C(=O)c1cc(-c2cnc(C(F)(F)F)cc2C#N)c(Cl)cc1OCCN1CCC[C@@H]1C(=O)O [49-2]
≤ 0.1	COCc1cc(Cl)ccc1N(C)C(=O)c1cc(-c2cnc(C(F)(F)F)cc2C#N)c(Cl)cc1OCCCC(=O)O [34-9]
≤ 0.1	Cc1cc(C(F)(F)F)ncc1-c1cc(C(=O)N(C)c2ccccc2CCCC(=O)O)ccc1Cl [14-2]
≤ 0.1	Cc1cccc(C)c1N(C)C(=O)c1cc(-c2cnc(C(F)(F)F)cc2C#N)c(Cl)cc1OCCCCO [21-4]
≤ 0.1	Cc1cc(Cl)ncc1-c1cc(C(=O)N(C)c2ccccc2OCCC(=O)O)ccc1Cl [11-2]
≤ 0.1	COc1ccccc1N(C)C(=O)c1cc(-c2cnc(C(F)(F)F)cc2C#N)c(Cl)cc1OCCCc1ccccn1 [42-6]
≤ 0.1	CN(C(=O)c1cc(-c2cnc(C(F)(F)F)cc2C#N)c(Cl)cc1OCCCC(=O)O)c1ccccc1-c1ccco1 [34-16]
≤ 0.1	COc1ccccc1N(C)C(=O)c1cc(-c2cnc(C(F)(F)F)cc2C#N)c(Cl)cc1OCCN(C)C(=O)C(F)(F)F [47-5]
≤ 0.1	COc1ccccc1N(C)C(=O)c1cc(-c2cnc(C(F)(F)F)cc2C#N)c(Cl)cc1OCCNC(=O)C(F)(F)F [47-4]
≤ 0.1	COc1ccccc1N(C)C(=O)c1ccc(Cl)c(-c2ncc(Cl)cc2Cl)c1 [19-2, 4-chloro-3-(3,5-dichloro-pyridin-2-yl)-N-(2-methoxy-phenyl)-N-methyl-benzamide]
≤ 0.1	Cc1cc(Cl)ncc1-c1cc(C(=O)N(C)c2ccccc2OCC(N)=O)ccc1Cl [6-1, N-(2-Carbamoylmethoxy-phenyl)-4-chloro-3-(6-chloro-4-methyl-pyridin-3-yl)-N-methyl-benzamide]
≤ 0.1	COc1cc(Cl)c(-c2cnc(C(F)(F)F)cc2C#N)cc1C(=O)N(C)c1c(F)cccc1OC [39-4]
≤ 0.1	CCN(C(=O)c1ccc(Cl)c(-c2ncc(Cl)cc2Cl)c1)c1ccccc1OC [17-2]
≤ 0.1	Cc1cc(C#N)ncc1-c1cc(C(=O)N(C)c2c(C)cccc2C)c(OCCCC(=O)O)cc1Cl [22-8]

Ki [µM]	SMILES
≤ 0.1	Cc1cc(C(F)(F)F)ncc1-c1cc(C(=O)N(C)c2c(C)cccc2OCCC(=O)O)ccc1Cl [11-5]
≤ 0.1	COc1cc(Cl)c(-c2cnc(C(F)(F)F)cc2C#N)cc1C(=O)N(C)c1c(C)cccc1OC [39-10]
≤ 0.1	COc1ccccc1N(C)C(=O)c1ccc(Cl)c(-c2c(Cl)cc(Cl)c[n+]2[O-])c1 [27-1, 4-Chloro-3-(3,5-dichloro-1-oxy-pyridin-2-yl)-N-(2-methoxy-phenyl)-N-methyl-benzamide]
≤ 0.1	COc1cccc(F)c1N(C)C(=O)c1cc(-c2cnc(C(F)(F)F)cc2C#N)c(Cl)cc1OCCCC(=O)O [34-26]
≤ 0.1	COc1ccccc1N(C)C(=O)c1cc(-c2cnc(C(F)(F)F)cc2C#N)c(Cl)cc1OCCOc1ccccn1 [42-8]
≤ 0.1	COc1ccccc1N(C)C(=O)c1cc(-c2cnc(C(F)(F)F)cc2C#N)c(Cl)cc1OCCN1CCC[C@H]1C(=O)O [49-3]
≤ 0.1	COc1cccc(C)c1N(C)C(=O)c1cc(-c2cnc(C(F)(F)F)cc2C#N)c(Cl)cc1OCCCC(=O)O [22-1, 4-{5-Chloro-4-(4-cyano-6-trifluoromethyl-pyridin-3-yl)-2-[(2-methoxy-6-methyl-phenyl)-methyl-carbamoyl]-phenoxy}-butyric acid]
≤ 0.1	COc1cc(Cl)c(-c2cnc(C(F)(F)F)cc2C#N)cc1C(=O)N(C)c1ncccc1C [39-21]
≤ 0.1	COC(=O)c1ccccc1N(C)C(=O)c1cc(-c2cnc(C(F)(F)F)cc2C#N)c(Cl)cc1OC [39-2]
≤ 0.1	Cc1cccc(N(C)C(=O)c2ccc(Cl)c(-n3c(C)cc(C(F)(F)F)nc3=O)c2)c1C [30-14]
≤ 0.1	CN(C(=O)c1ccc(Cl)c(-c2ncc(Cl)cc2Cl)c1)c1ccccc1O [19-1, 4-Chloro-3-(3,5-dichloro-pyridin-2-yl)-N-(2-hydroxy-phenyl)-N-methyl-benzamide]
≤ 0.1	COc1cc(F)ccc1N(C)C(=O)c1cc(-c2cnc(C(F)(F)F)cc2C#N)c(Cl)cc1OCCCC(=O)O [34-4]
≤ 0.1	Cc1cccnc1N(C)C(=O)c1cc(-c2cnc(C(F)(F)F)cc2C#N)c(Cl)cc1OCCCC(=O)O [34-20]
≤ 0.1	COc1cccc(C)c1N(C)C(=O)c1cc(-c2cnc(C#N)cc2C)c(Cl)cc1OCCCCO [21-2]
≤ 0.1	Cc1cccc(C)c1N(C)C(=O)c1cc(-c2nc3ccccc3cc2C#N)c(Cl)cc1OCCCC(=O)O [22-6]
≤ 0.1	Cc1cc(C#N)ncc1-c1cc(C(=O)N(C)c2ccccc2CCCC(=O)O)ccc1Cl [14-3]
≤ 0.1	COc1cc(Cl)ccc1N(C)C(=O)c1cc(-c2cnc(C(F)(F)F)cc2C#N)c(Cl)cc1OCCCC(=O)O [34-2]
≤ 0.1	COc1ccccc1N(C)C(=O)c1cc(-c2cnc(C(F)(F)F)cc2C#N)c(Cl)cc1OCCCc1ccncc1 [42-9]
≤ 0.1	COc1cccc(CN(C)C(=O)c2cc(-c3cnc(C(F)(F)F)cc3C#N)c(Cl)cc2OC)c1 [39-18]
≤ 0.1	CN(C(=O)c1ccc(Cl)c(-c2nc3cccc(F)c3cc2C#N)c1)c1ccccc1OCCCC(=O)O [33-1, 4-(2-{[4-Chloro-3-(3-cyano-5-fluoro-quinolin-2-yl)-benzoyl]-methyl-amino}-phenoxy)-butyric acid]
≤ 0.1	COc1ccccc1N(C)C(=O)c1cc(-c2cnc(C(F)(F)F)cc2C#N)c(Cl)cc1OCCCn1cccc1 [42-10]
